Test [1] deals with T1, wt human TYK2, catalytic site (Homo sapiens, UniProt P29597).
T1 construct: 2 nM wt human TYK2, catalytic site (SignalChem/CAN); purchased SignalChem/CAN
T1 sequence (P29597 897-1176 limits assumed): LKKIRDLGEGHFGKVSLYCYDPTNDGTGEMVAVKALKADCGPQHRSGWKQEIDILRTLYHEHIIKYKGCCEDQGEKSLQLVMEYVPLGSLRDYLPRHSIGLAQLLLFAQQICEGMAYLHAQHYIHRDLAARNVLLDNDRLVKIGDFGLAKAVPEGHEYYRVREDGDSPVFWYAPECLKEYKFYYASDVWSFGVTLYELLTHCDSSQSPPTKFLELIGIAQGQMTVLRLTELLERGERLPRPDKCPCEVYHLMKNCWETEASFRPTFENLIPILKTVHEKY
In words: HTRF KinEASE assay, TYK2. To be noted: 1 μM ATP; read-out: IC50, inhibitory activity toward TYK2. The class given is biochemical. As for the experimental part:
Basic protocol for HTRF KinEASE assay (Cisbio/FRA) inhibitor studies involved two steps: Enzymatic step: Addition of 4 μl of test compound in corresponding DMSO dilutions, 4 μl of kinase/substrate mixture, 2 μl of ATP into 384 well small volume plates. Incubation for at least 30 minutes at room temperature.
Detection step: Addition of 5 μl antibody and 5 μl streptavidin-XL665, read plate after 60 minutes. Data analysis of emission ratios according to KinEASE assay protocol.
Kinase and assay components were adjusted to final concentrations according to the kit protocol. For TYK2: 2 nM wt human TYK2, catalytic site (SignalChem/CAN), 1 μM HTRF KinEASE-TK Substrate-biotin, 1 μM ATP in 1× Kinase Buffer
(In general: TR-FRET usually uses a lanthanide donor and a delayed reading to cut background.)

Test [2] concerns the target T2, wt human NUAK1, full length (Homo sapiens, UniProt O60285).
T2 construct: 8 nM wt human NUAK1, full length (ThermoFisher/USA); purchased ThermoFisher/USA
T2 sequence (O60285 1-661): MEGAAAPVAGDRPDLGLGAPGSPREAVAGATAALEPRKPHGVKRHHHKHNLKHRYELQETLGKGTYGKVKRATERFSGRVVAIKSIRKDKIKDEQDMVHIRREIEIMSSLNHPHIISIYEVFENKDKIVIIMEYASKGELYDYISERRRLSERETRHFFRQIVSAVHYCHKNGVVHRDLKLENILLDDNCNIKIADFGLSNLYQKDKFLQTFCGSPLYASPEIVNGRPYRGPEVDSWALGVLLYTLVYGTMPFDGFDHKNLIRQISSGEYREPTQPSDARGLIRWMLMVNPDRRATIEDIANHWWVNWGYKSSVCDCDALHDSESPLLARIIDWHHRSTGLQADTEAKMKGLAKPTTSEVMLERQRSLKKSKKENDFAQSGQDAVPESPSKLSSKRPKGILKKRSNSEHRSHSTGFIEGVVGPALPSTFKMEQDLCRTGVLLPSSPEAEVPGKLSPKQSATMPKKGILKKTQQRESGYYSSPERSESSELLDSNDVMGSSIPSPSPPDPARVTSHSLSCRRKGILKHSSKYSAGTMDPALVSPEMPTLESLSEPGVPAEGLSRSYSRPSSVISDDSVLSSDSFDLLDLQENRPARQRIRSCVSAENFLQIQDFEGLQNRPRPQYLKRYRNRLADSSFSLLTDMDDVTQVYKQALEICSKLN
Put plainly: TR-FRET LanthaScreen Eu Kinase Binding Assay, NUAK1. To be noted: 5 nM Kinase Tracer 236; read-out: IC50, inhibitory activity toward NUAK1. The procedure: The basic protocol for TR-FRET LanthaScreen Eu Kinase Binding Assay inhibitor studies were performed as follows. LanthaScreen Kinase Binding Assays (ThermoFisher/USA) to evaluate inhibitors were performed by addition of 5 μl of test compound in corresponding DMSO dilutions/5 μl of kinase/antibody mixture, 5 μl of tracer into 384 well small volume plates. After incubation for 1 hour at room temperature, plates were read. Data analysis of emission ratios was according to LanthaScreen Eu Kinase Binding Assay protocol.
Kinase and assay components were adjusted to final concentrations according to the kit protocol. For LRRK2: 5 nM wt human LRRK2, catalytic site, or G2019S human LRRK2, catalytic site (ThermoFisher/USA), 2 nM Eu-Anti-GST Antibody, 10 nM Kinase Tracer 236 in 1× Kinase Buffer A. For NUAK1: 8 nM wt human NUAK1, full length (ThermoFisher/USA), 2 nM Eu-Anti-His Antibody, 5 nM Kinase Tracer 236 in 1× Kinase Buffer A.

By IC50 is commonly meant the concentration at which inhibition is half-maximal. For `Fc1cccc(Cl)c1C1=Nc2ccc(Cl)cc2-c2[nH]ncc2N1` [Compound 37, 9-chloro-5-(2-chloro-6-fluorophenyl)-1,4-dihydrobenzo[d]pyrazolo[3,4-f][1,3]diazepine], the IC50 in test [1] and in test [2] was 100 to 1000 nM in each case.
For the compound `COc1ccc2c(c1)-c1[nH]ncc1N=C(c1c(F)cccc1F)N2` [Compound 38, 5-(2,6-difluorophenyl)-9-methoxy-1,6-dihydrobenzo[d]pyrazolo[3,4-f][1,3]diazepine], the IC50 in test [1] and in test [2] was 100 to 1000 nM throughout.
As to `COc1ccc2c(c1)-c1[nH]ncc1N=C(c1c(F)cccc1Cl)N2` [Compound 39, 5-(2-chloro-6-fluorophenyl)-9-methoxy-1,6-dihydrobenzo[d]pyrazolo[3,4-f][1,3]diazepine], the IC50 in test [1] and in test [2] was 100 to 1000 nM throughout.
On to `Fc1cccc(F)c1C1=Nc2cn[nH]c2-c2cc(OC(F)F)ccc2N1` [Compound 42, 9-(difluoromethoxy)-5-(2,6-difluorophenyl)-1,6-dihydrobenzo[d]pyrazolo[3,4-f][1,3]diazepine], for which the IC50 in test [1] lay within 100 to 1000 nM; in test [2] it was 10 to 100 nM.
The corresponding values for `Fc1cccc(Cl)c1C1=Nc2cn[nH]c2-c2cc(OC(F)F)ccc2N1` [Compound 43, 5-(2-chloro-6-fluorophenyl)-9-(difluoromethoxy)-1,6-dihydrobenzo[d]pyrazolo[3,4-f][1,3]diazepine] are 100 to 1000 nM and 10 to 100 nM.
The matching figures for `CCc1ccc2c(c1)-c1[nH]ncc1N=C(c1c(F)cccc1Cl)N2` [Compound 45, 5-(2-chloro-6-fluorophenyl)-9-ethyl-1,6-dihydrobenzo[d]pyrazolo[3,4-f][1,3]diazepine]: 100 to 1000 nM and 100 to 1000 nM.
The matching figures for `COc1ccc2c(c1)N=C(c1c(F)cccc1F)Nc1cn[nH]c1-2` [Compound 49, 5-(2,6-difluorophenyl)-8-methoxy-1,4-dihydrobenzo[d]pyrazolo[3,4-f][1,3]diazepine]: 10 to 100 nM and 100 to 1000 nM.
As to `OCc1ccc2c(c1)-c1[nH]ncc1N=C(c1c(F)cccc1F)N2` [Compound 50, (5-(2,6-difluorophenyl)-1,6-dihydrobenzo[d]pyrazolo[3,4-f][1,3]diazepin-9-yl)methanol], the IC50 in test [1] was in the range of 100 to 1000 nM; in test [2] it was 10 to 100 nM.
The corresponding values for `Fc1cccc(F)c1C1=Nc2ccncc2-c2[nH]ncc2N1` [Compound 53, 5-(2,6-difluorophenyl)-1,4-dihydropyrazolo[4,3-d]pyrido[3,4-f][1,3]diazepine] are 10 to 100 nM and 10 to 100 nM.
The corresponding values for `Cc1cnc2c(c1)-c1[nH]ncc1N=C(c1c(F)cccc1F)N2` [Compound 61, 5-(2,6-difluorophenyl)-9-methyl-1,6-dihydropyrazolo[4,3-d]pyrido[3,2-f][1,3]diazepine] are 100 to 1000 nM and 10 to 100 nM.
Regarding `Fc1cccc(F)c1C1=Nc2cn[nH]c2-c2cc(Cl)cnc2N1` [Compound 64, 9-chloro-5-(2,6-difluorophenyl)-1,6-dihydropyrazolo[4,3-d]pyrido[3,2-f][1,3]diazepine], the IC50 in test [1] lay within 100 to 1000 nM; in test [2] it was 10 to 100 nM.
The corresponding values for `Fc1cccc(F)c1C1=Nc2cn[nH]c2-c2cn(-c3ccccc3)nc2N1` [Compound 68, 5-(2,6-difluorophenyl)-8-phenyl-6,8-dihydro-1H-dipyrazolo[3,4-d:3 ′,4′-f][1,3]diazepine] are 10 to 100 nM and 10 to 100 nM.
The corresponding values for `Fc1cccc(F)c1C1=Nc2c(Br)n[nH]c2-c2ccccc2N1` [Compound 69, 3-bromo-5-(2,6-difluorophenyl)-1,6-dihydrobenzo[d]pyrazolo[3,4-f][1,3]diazepine] are 10 to 100 nM and 10 to 100 nM.
The matching figures for `Fc1cccc(F)c1C1=Nc2cnccc2-c2[nH]ncc2N1` [Compound 71, 5-(2,6-difluorophenyl)-1,4-dihydropyrazolo[4,3-d]pyrido[4,3-f][1,3]diazepine]: 10 to 100 nM and less than 10 nM.
`Fc1cccc(F)c1C1=Nc2cn[nH]c2-c2cn[nH]c2N1` [Compound 72, 5-(2,6-difluorophenyl)-6,7-dihydro-1H-dipyrazolo[3,4-d:3′,4′-f][1,3]diazepine]: the IC50 in test [1] and in test [2] was 10 to 100 nM in each case.
Regarding `O=C(O)c1ccc2c(c1)N=C(c1c(F)cccc1F)Nc1cn[nH]c1-2` [Compound 73, 5-(2,6-difluorophenyl)-1,4-dihydrobenzo[d]pyrazolo[3,4-f][1,3]diazepine-8-carboxylic acid], the IC50 in test [1] is less than 10 nM; in test [2], 10 to 100 nM.
The corresponding values for `Cc1n[nH]c2c1NC(c1c(F)cccc1F)=Nc1ccccc1-2` [Compound 76, 5-(2,6-difluorophenyl)-3-methyl-1,4-dihydrobenzo[d]pyrazolo[3,4-f][1,3]diazepine] are 10 to 100 nM and 10 to 100 nM.
Take `O=C(c1ccc2c(c1)N=C(c1c(F)cccc1Cl)Nc1cn[nH]c1-2)N1CCOCC1` [Compound 78, (5-(2-chloro-6-fluorophenyl)-1,4-dihydrobenzo[d]pyrazolo[3,4-f][1,3]diazepin-8-yl)(morpholino)methanone]: the IC50 in test [1] and in test [2] was 100 to 1000 nM throughout.
On to `Fc1cccc(Cl)c1C1=Nc2c(Br)n[nH]c2-c2cccnc2N1` [Compound 88], for which the IC50 in test [1] and in test [2] was 10 to 100 nM throughout.
As to `FC(F)Oc1ccc2c(c1)-c1[nH]ncc1N=C(c1c(Cl)cccc1Cl)N2` [Compound 90, 5-(2,6-dichlorophenyl)-9-(difluoromethoxy)-1,6-dihydrobenzo[d]pyrazolo[3,4-f][1,3]diazepine], the IC50 in test [1] and in test [2] was 100 to 1000 nM in each case.
`NC(=O)c1ccc2c(c1)-c1[nH]ncc1NC(c1c(F)cccc1F)=N2` [Compound 93, 5-(2,6-difluorophenyl)-1,4-dihydrobenzo[d]pyrazolo[3,4-f][1,3]diazepine-9-carboxamide]: the values for the IC50 in test [1] and in test [2] were 100 to 1000 nM and 10 to 100 nM, respectively.
The matching figures for `NC(=O)c1ccc2c(c1)-c1[nH]ncc1N=C(c1c(F)cccc1Cl)N2` [Compound 94, 5-(2-chloro-6-fluorophenyl)-1,6-dihydrobenzo[d]pyrazolo[3,4-f][1,3]diazepine-9-carboxamide]: 100 to 1000 nM and 10 to 100 nM.
For `O=C(NC1CCOCC1)c1ccc2c(c1)N=C(c1c(F)cccc1F)Nc1cn[nH]c1-2` [Compound 95, 5-(2,6-difluorophenyl)-N-(tetrahydro-2H-pyran-4-yl)-1,4-dihydrobenzo[d]pyrazolo[3,4-f][1,3]diazepine-8-carboxamide], the IC50 in test [1] is less than 10 nM; in test [2], 10 to 100 nM.
The matching figures for `CC(C)(O)c1ccc2c(c1)NC(c1c(F)cccc1F)=Nc1cn[nH]c1-2` [Compound 98, 2-(5-(2,6-difluorophenyl)-1,6-dihydrobenzo[d]pyrazolo[3,4-f][1,3]diazepin-8-yl)propan-2-ol]: 10 to 100 nM and 10 to 100 nM.
The corresponding values for `Fc1cccc(F)c1C1=Nc2cc(OC3CCOCC3)ccc2-c2[nH]ncc2N1` [Compound 99, 5-(2,6-difluorophenyl)-8-((tetrahydro-2H-pyran-4-yl)oxy)-1,4-dihydrobenzo[d]pyrazolo[3,4-f][1,3]diazepine] are 10 to 100 nM and 10 to 100 nM.

The values are drawn from patent US20220380374A1, “1,4-DIHYDROBENZO[D]PYRAZOLO[3,4-F][1,3]DIAZEPINE DERIVATIVES AND RELATED COMPOUNDS AS LRRK2, NUAK1 AND/OR TYK2 KINASE MODULATORS FOR THE TREATMENT OF E.G. AUTOIMMUNE DISEASE” (Origenis GMBH, priority 2019, published 2022).
